Results as given in patent US9212226B2, “Amino acid sequences directed against CXCR4 and other GPCRs and compounds comprising the same” (Ablynx N.V., priority 2008, dated 2015).
“Also recorded” adds a separate entry of the source.

Experiments:
CXCR4 [1] = molecular target: T1, CXCR4 (Homo sapiens, UniProt P61073); experiment: [125I]-CXCL12 competition binding on membranes from HEK293T cells transiently expressing CXCR4; settings: membranes from HEK293T cells transiently expressing CXCR4; mean ± S.E.M.
T1 sequence (P61073 whole entry): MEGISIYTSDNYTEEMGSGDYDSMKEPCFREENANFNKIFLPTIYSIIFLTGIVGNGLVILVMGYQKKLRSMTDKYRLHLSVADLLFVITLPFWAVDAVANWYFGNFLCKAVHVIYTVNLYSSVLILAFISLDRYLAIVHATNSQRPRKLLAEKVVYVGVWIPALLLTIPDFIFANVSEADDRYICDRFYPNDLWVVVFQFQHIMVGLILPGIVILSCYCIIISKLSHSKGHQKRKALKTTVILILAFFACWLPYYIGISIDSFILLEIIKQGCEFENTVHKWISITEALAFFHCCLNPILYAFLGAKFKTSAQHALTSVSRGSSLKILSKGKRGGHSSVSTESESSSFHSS
Description: (§1) HEK293T cells were maintained at 37° C. in a humidified 5% CO2, 95% air atmosphere in Dulbecco's modified Eagle's medium (DMEM) containing 2 mM L-glutamine, 50 IU/ml penicillin, 50 μg/ml streptomycin, and 10% (v/v) fetal calf serum. Jurkat cells were cultured in a humidified 5% CO2, 95% air atmosphere in a 1:1 mixture of Dulbecco's modified Eagle's medium (DMEM) and Ham's F12 medium containing 2 mM L-glutamine, 50 IU/ml penicillin, 50 μg/ml streptomycin, and 10% (v/v) fetal calf serum. […] [^125 I]-Labelling— Radiolabeling of Nanobodies with ^125I was performed using the Iodo-gen method (Pierce, Rockford, Ill.) according to the manufacturer's protocol. ^125I-labeled Nanobodies was separated from free iodine (>99%) using a Sephadex G-25 gel filtration column (Amersham Biosciences, Piscataway, N.J.). […] Competition Binding Assays— Membranes from HEK293T cells transiently expressing CXCR3 or CXCR4 were prepared 48 h after transfection as follows. Cells were washed and scraped from the cell culture dishes with ice-cold PBS containing 1 mm EDTA. The scraped cells were pelleted at 1500×g for 10 min at 4° C. The pellet was washed and then resuspended in ice-cold membrane buffer (15 mM Tris, pH 7.5, 1 mM EGTA, 0.3 mM EDTA, and 2 mM MgCl2). The cell suspension was homogenized by 10 strokes at 1200 rpm using a Teflon-glass homogenizer and rotor and further subjected to three freeze-thaw cycles using liquid nitrogen. Membranes were separated by centrifugation at 40,000 g for 25 min at 4° C. The membrane pellet was washed and resuspended in ice-cold Tris-sucrose buffer (20 mM Tris, pH 7.4, and 250 mM sucrose) and frozen in liquid nitrogen. The total protein was determined using a Bradford assay (Bio-Rad). […] Membranes were then harvested over polyethylenimine (0.5%)-treated Whatman GF/C filter plates and washed three times with ice cold binding buffer containing 500 mM NaCl. Plates were counted by liquid scintillation. Inositol Phosphate Accumulation Assay— 24 hours post transfection with pcDNA3.1-CXCR4 and pcDNA1-HA-mG {alpha} qi5 (see Verzijl et al, 2008 supra), 250.000 cells were seeded into 24-wells plates and labelled overnight using inositol-free minimal essential medium supplemented with 1 μCi myo-[2-^3H]-inositol. The next day, the cells were washed once to remove not incorporated myo-[2-^3H]-inositol. […] In agonist experiments, the cells were directly stimulated with test compounds and LiCl (10 mM) in assay buffer for 2 h at 37° C. The stimulation was stopped by aspirating the stimulation medium and adding ice-cold 10 mM formic acid. The accumulated inositol phosphates were isolated by anion exchange chromatography and counted by liquid scintillation. CRE Reporter Gene Assay— HEK239T cells were transfected with pCRE/β-galactosidase (Chen W, Shields T S, Stork P J S, Cone R D (1995) Anal Biochem 226:349-354) and plasmids (pcDEF3 or pcDNA3.1) encoding the indicated receptors. 40,000 transfected cells per well were seeded into 96 well plates and grown in DMEM supplemented with 10% fetal calf serum. The medium was replaced 32 h after transfection by serum-free DMEM supplemented with 0.5% bovine serum albumin and ligands as indicated. […] The β-galactosidase activity was determined by the measurement of absorption at 420 nm with a PowerwaveX340 plate reader (Bio-Tek Instruments Inc., Winooski, Vt.) after incubation with the assay buffer when the OD420 value for forskolin (3 μM) controls reached 0.4-0.6. Chemotaxis Assay— The chemotactic responsiveness of Jurkat 3D cells was assessed using ChemoTx™ plates (Receptor Technologies Ltd., Oxon, UK) in which a upper cell-containing compartment is separated from a lower chemoattractant-containing compartment by a polyvinylpyrollidone-free polycarbonate filter with 5-μm pores. Cells were harvested, washed and resuspended in RPMI containing 0.5% bovine serum albumin and then loaded to 150,000 cells per well in a volume of 25 μl into the upper compartment of the chemotaxis chamber.

CXCR4 (N119A) = CXCR4 (N119A) (Homo sapiens, UniProt P61073, N119A); experiment: Basal inositol phosphate accumulation in HEK293T cells expressing CXCR4 (N119A); format: cell-based
Chain of CXCR4 (N119A) (P61073 whole entry N119A): as the sequence (P61073 whole entry) above, with N119A counted along it
Description: HEK293T cells were maintained at 37° C. in a humidified 5% CO2, 95% air atmosphere in Dulbecco's modified Eagle's medium (DMEM) containing 2 mM L-glutamine, 50 IU/ml penicillin, 50 μg/ml streptomycin, and 10% (v/v) fetal calf serum. Jurkat cells were cultured in a humidified 5% CO2, 95% air atmosphere in a 1:1 mixture of Dulbecco's modified Eagle's medium (DMEM) and Ham's F12 medium containing 2 mM L-glutamine, 50 IU/ml penicillin, 50 μg/ml streptomycin, and 10% (v/v) fetal calf serum. […] [^125 I]-Labelling— Radiolabeling of Nanobodies with ^125I was performed using the Iodo-gen method (Pierce, Rockford, Ill.) according to the manufacturer's protocol. ^125I-labeled Nanobodies was separated from free iodine (>99%) using a Sephadex G-25 gel filtration column (Amersham Biosciences, Piscataway, N.J.). […] Competition Binding Assays— Membranes from HEK293T cells transiently expressing CXCR3 or CXCR4 were prepared 48 h after transfection as follows. Cells were washed and scraped from the cell culture dishes with ice-cold PBS containing 1 mm EDTA. The scraped cells were pelleted at 1500×g for 10 min at 4° C. The pellet was washed and then resuspended in ice-cold membrane buffer (15 mM Tris, pH 7.5, 1 mM EGTA, 0.3 mM EDTA, and 2 mM MgCl2). The cell suspension was homogenized by 10 strokes at 1200 rpm using a Teflon-glass homogenizer and rotor and further subjected to three freeze-thaw cycles using liquid nitrogen. Membranes were separated by centrifugation at 40,000 g for 25 min at 4° C. The membrane pellet was washed and resuspended in ice-cold Tris-sucrose buffer (20 mM Tris, pH 7.4, and 250 mM sucrose) and frozen in liquid nitrogen. The total protein was determined using a Bradford assay (Bio-Rad). Periplasmas (1:10) or ligands were pre-incubated with membranes in binding buffer (50 mM HEPES (pH 7.4), 1 mM CaCl2, 5 mM MgCl2, 100 mM NaCl, 0.5% bovine serum albumin) supplemented with 0.5% BSA for 1 h at 22° C. before the addition of [^125I]-CXCL12 (40 pM) or [^125I]-238D2 (3 nM) or [^125I]-238D4 (3 nM) for additional 2 h at 22° C. […] Membranes were then harvested over polyethylenimine (0.5%)-treated Whatman GF/C filter plates and washed three times with ice cold binding buffer containing 500 mM NaCl. Plates were counted by liquid scintillation. Inositol Phosphate Accumulation Assay— 24 hours post transfection with pcDNA3.1-CXCR4 and pcDNA1-HA-mG {alpha} qi5 (see Verzijl et al, 2008 supra), 250.000 cells were seeded into 24-wells plates and labelled overnight using inositol-free minimal essential medium supplemented with 1 μCi myo-[2-^3H]-inositol. The next day, the cells were washed once to remove not incorporated myo-[2-^3H]-inositol. […] In agonist experiments, the cells were directly stimulated with test compounds and LiCl (10 mM) in assay buffer for 2 h at 37° C. The stimulation was stopped by aspirating the stimulation medium and adding ice-cold 10 mM formic acid. The accumulated inositol phosphates were isolated by anion exchange chromatography and counted by liquid scintillation. CRE Reporter Gene Assay— HEK239T cells were transfected with pCRE/β-galactosidase (Chen W, Shields T S, Stork P J S, Cone R D (1995) Anal Biochem 226:349-354) and plasmids (pcDEF3 or pcDNA3.1) encoding the indicated receptors. 40,000 transfected cells per well were seeded into 96 well plates and grown in DMEM supplemented with 10% fetal calf serum. The medium was replaced 32 h after transfection by serum-free DMEM supplemented with 0.5% bovine serum albumin and ligands as indicated. […]

CXCR4 [2] = molecular target: T1, CXCR4; experiment: [125I]-238D4 competition binding on membranes from HEK293T cells transiently expressing CXCR4
Description: as §1

CXCR4 [3] = molecular target: T1, CXCR4; experiment: [125I]-238D2 competition binding on membranes from HEK293T cells transiently expressing CXCR4
Description: as §1

[4] = membranes from HEK293T cells transiently expressing CXCR4, mean ± S.E.M.

Row | Displacem. (%) of [125I]-CXCL12 (maximal displacement) (CXCR4 [1]) | effect on the nanobody-induced reduction of basal inositol phosphate accumulation (CXCR4 (N119A); with 238D4, L3 and L8) | displacement of [125I]-238D4 from CXCR4 (CXCR4 [2]; [125I]-238D4 3 nM) | Displacem. (%) of [125I]-238D4 (maximal displacement) (CXCR4 [2]; [4]) | displacement of [125I]-238D2 from CXCR4 (CXCR4 [3]; [125I]-238D2 3 nM) | Displacem. (%) of [125I]-238D2 (maximal displacement) (CXCR4 [3]; [4]) | stimulation of the mutant receptor (CXCR4 (N119A); inositol phosphate accumulation) | Compound | functional profile at CXCR4 (N119A) (CXCR4 (N119A); ligand-induced alteration of basal inositol phosphate accumulation, listed as plerixafor)
1 | 94 ± 2% | antagonized | displaces | 99 ± 4% | displaces | 102 ± 1% |  | c1cc(CN2CCCNCCNCCCNCC2)ccc1CN1CCCNCCNCCCNCC1 [AMD3100, reference compound] | neutral antagonist; also recorded: Neither significant agonistic nor inverse antagonistic activity
2 |  |  |  |  |  |  | 0.4 fold over basal | CXCL12: stromal-derived-factor-1, the natural (endogenous) ligand for CXCR4 [reference compound] | 
